Assay results: ChEMBL document CHEMBL1909046, “DrugMatrix in vitro pharmacology data”

Assays:
[1] = target: 5-hydroxytryptamine receptor 4 (Cavia porcellus, UniProt O70528); type: cell membranes, Dunkin-Hartley, Striatum, Membrane; note: in other assays of this panel Not Active means under 50% inhibition at 10 µM
[2] = target: 5-hydroxytryptamine receptor 6 (Homo sapiens, UniProt P50406); type: cell membranes, HeLa, Membrane; note: in other assays of this panel Not Active means under 50% inhibition at 10 µM
[3] = target: Sigma non-opioid intracellular receptor 1 (Homo sapiens, UniProt Q99720); assay: DRUGMATRIX: Sigma1 radioligand binding (ligand: [3H] Haloperidol); type: cell membranes, Jurkat, Membrane; conditions: Not Active = under 50% inhibition at 10 µM; for Ki: read-out: Ki
[4] = DRUGMATRIX: Sigma2 radioligand binding (ligand: [3H] Ifenprodil); type: cell membranes, Rattus norvegicus, Wistar, Brain, Membrane; conditions: Not Active = under 50% inhibition at 10 µM
[5] = target: T1, Angiotensin-converting enzyme (Oryctolagus cuniculus, UniProt P12822); type: tissue-based, Lung;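 note: enzymatic inhibition of angiotensin-converting enzyme measured with FAPGG as the substrate; in other assays of this panel Not Active means under 50% inhibition at 10 µM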
T1 sequence (P12822 whole entry): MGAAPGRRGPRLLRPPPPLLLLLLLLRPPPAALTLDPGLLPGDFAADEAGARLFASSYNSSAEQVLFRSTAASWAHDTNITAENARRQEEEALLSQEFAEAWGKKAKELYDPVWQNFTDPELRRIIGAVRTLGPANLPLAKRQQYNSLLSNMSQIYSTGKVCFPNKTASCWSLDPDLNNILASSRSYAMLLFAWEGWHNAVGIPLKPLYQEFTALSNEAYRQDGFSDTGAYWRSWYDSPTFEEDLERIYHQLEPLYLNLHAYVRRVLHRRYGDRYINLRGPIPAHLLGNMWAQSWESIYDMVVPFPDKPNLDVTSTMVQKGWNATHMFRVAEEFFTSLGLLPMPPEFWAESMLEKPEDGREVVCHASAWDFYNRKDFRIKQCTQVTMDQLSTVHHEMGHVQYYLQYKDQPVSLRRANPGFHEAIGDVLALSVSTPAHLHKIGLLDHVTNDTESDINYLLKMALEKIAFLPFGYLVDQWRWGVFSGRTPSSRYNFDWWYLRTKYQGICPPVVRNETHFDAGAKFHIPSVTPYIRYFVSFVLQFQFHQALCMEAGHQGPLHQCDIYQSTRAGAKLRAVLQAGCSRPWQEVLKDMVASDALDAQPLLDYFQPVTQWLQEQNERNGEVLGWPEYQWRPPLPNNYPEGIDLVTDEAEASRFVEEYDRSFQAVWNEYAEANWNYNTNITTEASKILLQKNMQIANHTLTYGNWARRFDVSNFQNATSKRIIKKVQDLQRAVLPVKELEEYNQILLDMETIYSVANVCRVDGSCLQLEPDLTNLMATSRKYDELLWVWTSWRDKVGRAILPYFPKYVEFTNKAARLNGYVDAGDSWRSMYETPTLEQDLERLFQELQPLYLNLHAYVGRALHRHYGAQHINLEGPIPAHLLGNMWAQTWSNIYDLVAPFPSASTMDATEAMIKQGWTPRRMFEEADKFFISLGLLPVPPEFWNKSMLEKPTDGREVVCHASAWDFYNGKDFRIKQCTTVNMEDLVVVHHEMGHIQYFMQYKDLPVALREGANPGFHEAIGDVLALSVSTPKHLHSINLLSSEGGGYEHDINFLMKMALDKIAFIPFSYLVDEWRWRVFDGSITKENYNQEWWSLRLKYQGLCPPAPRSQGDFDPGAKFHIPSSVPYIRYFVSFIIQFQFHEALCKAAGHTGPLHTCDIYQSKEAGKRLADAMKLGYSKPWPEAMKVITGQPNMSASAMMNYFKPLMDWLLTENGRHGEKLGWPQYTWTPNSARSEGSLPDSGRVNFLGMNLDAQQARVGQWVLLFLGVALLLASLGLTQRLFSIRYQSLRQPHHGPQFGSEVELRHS

Cytochrome P450 2C19 = Cytochrome P450 2C19 (Homo sapiens, UniProt P33261); conditions: bti-tn-5b1-4; note: in other assays of this panel Not Active means under 50% inhibition at 10 µM
Cytochrome P450 2C19, sequence (P33261 whole entry): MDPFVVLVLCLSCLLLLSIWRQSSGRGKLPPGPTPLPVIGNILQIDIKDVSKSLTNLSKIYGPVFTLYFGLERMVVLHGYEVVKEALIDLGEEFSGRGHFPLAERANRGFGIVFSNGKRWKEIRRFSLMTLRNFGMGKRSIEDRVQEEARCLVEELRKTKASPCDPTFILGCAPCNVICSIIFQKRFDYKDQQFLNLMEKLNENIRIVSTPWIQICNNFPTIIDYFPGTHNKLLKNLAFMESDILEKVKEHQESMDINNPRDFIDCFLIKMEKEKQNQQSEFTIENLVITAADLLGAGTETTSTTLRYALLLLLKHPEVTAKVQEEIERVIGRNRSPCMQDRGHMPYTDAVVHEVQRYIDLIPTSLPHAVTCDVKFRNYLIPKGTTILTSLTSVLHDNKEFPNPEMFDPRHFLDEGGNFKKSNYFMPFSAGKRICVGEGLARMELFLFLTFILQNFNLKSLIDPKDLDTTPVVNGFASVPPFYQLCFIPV

5-hydroxytryptamine receptor 6, sequence (P50406 whole entry): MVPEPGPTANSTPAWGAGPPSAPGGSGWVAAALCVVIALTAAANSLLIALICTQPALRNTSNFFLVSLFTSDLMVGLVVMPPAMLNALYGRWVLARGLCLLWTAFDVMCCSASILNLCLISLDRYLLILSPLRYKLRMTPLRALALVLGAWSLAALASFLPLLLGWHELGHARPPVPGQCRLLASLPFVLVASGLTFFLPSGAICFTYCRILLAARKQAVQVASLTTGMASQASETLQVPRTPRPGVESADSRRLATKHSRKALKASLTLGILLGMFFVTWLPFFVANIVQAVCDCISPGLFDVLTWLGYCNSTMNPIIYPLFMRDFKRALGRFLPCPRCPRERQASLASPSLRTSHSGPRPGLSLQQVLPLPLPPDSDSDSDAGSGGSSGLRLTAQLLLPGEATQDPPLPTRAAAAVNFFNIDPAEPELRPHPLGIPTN
5-hydroxytryptamine receptor 4, sequence (O70528 whole entry): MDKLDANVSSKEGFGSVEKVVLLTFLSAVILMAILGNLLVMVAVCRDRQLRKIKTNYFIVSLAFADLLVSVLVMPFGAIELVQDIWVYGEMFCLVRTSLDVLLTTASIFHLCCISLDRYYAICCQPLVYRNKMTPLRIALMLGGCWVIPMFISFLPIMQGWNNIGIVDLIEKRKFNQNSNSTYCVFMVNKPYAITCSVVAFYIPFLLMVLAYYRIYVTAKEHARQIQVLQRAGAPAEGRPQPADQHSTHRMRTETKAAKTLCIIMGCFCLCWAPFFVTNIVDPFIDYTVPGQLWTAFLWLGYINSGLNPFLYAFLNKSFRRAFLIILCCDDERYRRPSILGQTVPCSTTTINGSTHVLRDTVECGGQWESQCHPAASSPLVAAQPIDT
Sigma non-opioid intracellular receptor 1, sequence (Q99720 whole entry): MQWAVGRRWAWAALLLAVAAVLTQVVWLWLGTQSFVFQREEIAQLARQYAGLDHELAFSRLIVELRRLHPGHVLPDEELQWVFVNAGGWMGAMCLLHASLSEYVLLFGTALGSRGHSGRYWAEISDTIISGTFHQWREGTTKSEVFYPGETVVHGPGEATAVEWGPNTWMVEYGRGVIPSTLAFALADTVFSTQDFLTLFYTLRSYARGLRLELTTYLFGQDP

SMILES | IC50 [1] | IC50 ([2]; hela) | IC50 ([3]; jurkat) | IC50 [4] | Ki [4] | IC50 [5] | IC50 (Cytochrome P450 2C19) | Ki (Cytochrome P450 2C19) | IC50 ([2]; read-out: IC50) [nM] | Ki ([2]; read-out: Ki) [nM] | Ki [1] | IC50 ([3]; read-out: IC50) [nM] | Ki [3] [nM] | IC50 ([4]; read-out: IC50) [nM] | Ki ([4]; read-out: Ki) [nM]
CC(C)(C)c1ccc(S(=O)(=O)/C=C/C#N)cc1 [BAY-11-7085] | Not Active | Not Active | Not Active | Not Active | Not Active | Not Active | Not Active | Not Active |  |  |  |  |  |  | 
CCc1oc2ccccc2c1C(=O)c1cc(Br)c(O)c(Br)c1 [BENZBROMARONE] | Not Active | Not Active | Not Active | Not Active | Not Active | Not Active | Not Active | Not Active |  |  |  |  |  |  | 
O=c1cc(-c2ccccc2)oc2ccc3ccccc3c12 [BETA-NAPHTHOFLAVONE] | Not Active | Not Active | Not Active | Not Active | Not Active | Not Active | Not Active | Not Active |  |  |  |  |  |  | 
CC(C)C[C@H]1C(=O)N2CCC[C@H]2[C@]2(O)O[C@](NC(=O)[C@@H]3C=C4c5cccc6[nH]c(Br)c(c56)C[C@H]4N(C)C3)(C(C)C)C(=O)N12 [BROMOCRIPTINE] | Not Active |  | Not Active | Not Active | Not Active | Not Active | Not Active | Not Active | 22 | 10 |  |  |  |  | 
CS(=O)(=O)OCCCCOS(C)(=O)=O [BUSULFAN] | Not Active | Not Active | Not Active | Not Active | Not Active | Not Active | Not Active | Not Active |  |  |  |  |  |  | 
O=C(/C=C/c1ccc(O)c(O)c1)OCCc1ccccc1 [CAFFEIC ACID PHENETHYL ESTER] | Not Active | Not Active | Not Active | Not Active | Not Active | Not Active | Not Active | Not Active |  |  |  |  |  |  | 
COc1cc(CNC(=O)CCCC/C=C/C(C)C)ccc1O [CAPSAICIN] | Not Active | Not Active | Not Active | Not Active | Not Active | Not Active | Not Active | Not Active |  |  |  |  |  |  | 
NC(=O)N1c2ccccc2C=Cc2ccccc21 [CARBAMAZEPINE] | Not Active | Not Active | Not Active | Not Active | Not Active | Not Active | Not Active | Not Active |  |  |  |  |  |  | 
CCOC(=O)n1ccn(C)c1=S [CARBIMAZOLE] | Not Active | Not Active | Not Active | Not Active | Not Active | Not Active | Not Active | Not Active |  |  |  |  |  |  | 
Oc1ccccc1O [CATECHOL] | Not Active | Not Active | Not Active | Not Active | Not Active | Not Active | Not Active | Not Active |  |  |  |  |  |  | 
CO[C@@]1(NC(=O)CSCC#N)C(=O)N2C(C(=O)O)=C(CSc3nnnn3C)CS[C@@H]21 [CEFMETAZOLE] | Not Active | Not Active | Not Active | Not Active | Not Active | Not Active | Not Active | Not Active |  |  |  |  |  |  | 
CN(C(=O)CCCOc1ccc2[nH]c(=O)ccc2c1)C1CCCCC1 [CILOSTAMIDE] | Not Active | Not Active | Not Active | Not Active | Not Active | Not Active | Not Active | Not Active |  |  |  |  |  |  | 
CC(C)(Oc1ccc(C2CC2(Cl)Cl)cc1)C(=O)O (stereo not drawn) [CIPROFIBRATE] |  | Not Active | Not Active | Not Active | Not Active | Not Active | Not Active | Not Active |  |  | Not Active |  |  |  | 
Nc1nc(Cl)nc2c1ncn2[C@H]1C[C@H](O)[C@@H](CO)O1 [CLADRIBINE] | Not Active | Not Active | Not Active | Not Active | Not Active | Not Active | Not Active | Not Active |  |  |  |  |  |  | 
CC[C@H]1OC(=O)[C@H](C)[C@@H](O[C@H]2C[C@@](C)(OC)[C@@H](O)[C@H](C)O2)[C@H](C)[C@@H](O[C@@H]2O[C@H](C)C[C@H](N(C)C)[C@H]2O)[C@](C)(OC)C[C@@H](C)C(=O)[C@H](C)[C@@H](O)[C@]1(C)O [CLARITHROMYCIN] | Not Active | Not Active | Not Active | Not Active | Not Active | Not Active | Not Active | Not Active |  |  |  |  |  |  | 
O=C(O)c1cc(=O)c2c(OCC(O)COc3cccc4oc(C(=O)O)cc(=O)c34)cccc2o1 [CROMOLYN] | Not Active | Not Active | Not Active | Not Active | Not Active | Not Active | Not Active | Not Active |  |  |  |  |  |  | 
O=P1(N(CCCl)CCCl)NCCCO1 (stereo not drawn) [CYCLOPHOSPHAMIDE ANHYDROUS] | Not Active | Not Active | Not Active | Not Active | Not Active | Not Active | Not Active | Not Active |  |  |  |  |  |  | 
CC(=O)O[C@]1(C(C)=O)CC[C@H]2[C@@H]3C=C(Cl)C4=CC(=O)[C@@H]5C[C@@H]5[C@]4(C)[C@H]3CC[C@@]21C [CYPROTERONE ACETATE] | Not Active | Not Active | Not Active | Not Active | Not Active | Not Active | Not Active | Not Active |  |  |  |  |  |  | 
Nc1nc(N)nc(NC2CC2)n1 [CYROMAZINE] | Not Active | Not Active | Not Active | Not Active | Not Active | Not Active | Not Active | Not Active |  |  |  |  |  |  | 
C#C[C@]1(O)CC[C@H]2[C@@H]3CCC4=Cc5oncc5C[C@]4(C)[C@H]3CC[C@@]21C [DANAZOL] | Not Active | Not Active | Not Active | Not Active | Not Active | Not Active | Not Active | Not Active |  |  |  |  |  |  | 
CCN[C@@H](C)Cc1cccc(C(F)(F)F)c1 [DEXFENFLURAMINE] | Not Active | Not Active |  | Not Active | Not Active | Not Active | Not Active | Not Active |  |  |  | 516 | 217 |  | 
C[C@H](C(=O)O)c1cccc(C(=O)c2ccccc2)c1 [DEXKETOPROFEN] | Not Active | Not Active | Not Active | Not Active | Not Active | Not Active | Not Active | Not Active |  |  |  |  |  |  | 
Cc1c(N(C)CS(=O)(=O)[O-])c(=O)n(-c2ccccc2)n1C.[Na+] [DIPYRONE SODIUM] | Not Active | Not Active | Not Active | Not Active | Not Active | Not Active | Not Active | Not Active |  |  |  |  |  |  | 
CC(CCc1ccc(O)cc1)NCCc1ccc(O)c(O)c1 (stereo not drawn) [DOBUTAMINE] | Not Active | Not Active |  |  |  | Not Active | Not Active | Not Active |  |  |  | 2520 | 1060 | 2600 | 1600
CCn1cc(C(=O)O)c(=O)c2cc(F)c(N3CCNCC3)nc21 [ENOXACIN] | Not Active | Not Active | Not Active | Not Active | Not Active | Not Active | Not Active | Not Active |  |  |  |  |  |  | 
